Publication PMC11741111, “Diversification of Lipopeptide Analogues Drives Versatility in Biological Activities” (Journal of Agricultural and Food Chemistry, 2025)

What was measured:
B. velezensis UMAF6639 [1] = assay: Lipopeptide analog bacterial toxicity (growth dynamics, OD600); format: cell-based, Bacillus velezensis; conditions: LB, 28 °C, read every 20 min, triplicate; for toxicity to B. velezensis UMAF6639 (OD600 over 24 h), surfactin variants at the mixture concentration: each analog at 65.83 µM; for toxicity to B. velezensis UMAF6639 (OD600 over 24 h), surfactin variants at the mixture concentration / effect on B. velezensis UMAF6639 growth (OD600 over 24 h), surfactins at physiological concentration: Figure 6K-O; for effect on B. velezensis UMAF6639 growth (OD600 over 24 h), surfactins at physiological concentration: mix 65.83 µM, C12 3.67, C13 16.93, C14 20.49, C15 21.85, C16 4.11 µM; for effect on B. velezensis UMAF6639 growth (OD600 over 24 h), iturin variants at the higher (mixture) concentration: each analog at 7.35 µM; for effect on B. velezensis UMAF6639 growth (OD600 over 24 h), iturin variants at the higher (mixture) concentration / effect on B. velezensis UMAF6639 growth (OD600 over 24 h), iturins at physiological concentration: Figure 6A-E; for effect on B. velezensis UMAF6639 growth (OD600 over 24 h), iturins at physiological concentration: mix 7.35 µM, C13 1.27, C14 2.39, C15 0.76, C16 1.96, C17 0.93 µM
Procedure: To analyze the toxicity of the lipopeptide variants toward B. velezensis UMAF6639, the wells of 96-well plates with 200 μL of LB medium were inoculated with 5 μL of a bacterial suspension (OD600 = 1), and every analog was added at the desired concentration.
Methanol concentrations used for lipopeptide treatment in each condition ranged from 0.005 to 4.3%, and the maximum was used as a control to confirm that was not harmful for Bacillus growth. OD600 values were measured in a plate reader (FLUOstar Omega reader, BMG LabTech) in kinetic mode with temperature control (28 °C), with measurements taken every 20 min.

B. cinerea = assay: Antifungal activity assay (fungal growth, OD600); format: cell-based, Botrytis cinerea; conditions: 24 h, 25 °C
Procedure: B. cinerea spores were harvested from sporulated plates with distilled water and filtered through a […] pore membrane to avoid mycelial contamination. 96-well plates containing 100 μL of PDB with 100 spores per well were used, and the corresponding analog concentrations were analyzed for antifungal activity. H2O2 (10 mM) was used as a positive control to induce fungal death. For this experiment, methanol concentrations used for lipopeptide treatment ranged from 2 to 6% for iturins, 0.08 to 0.5% for fengycins and 0.2 to 4% for surfactins. The highest methanol concentration used for each condition was added to the control. The plates were incubated for 24 h with agitation (150 rpm) at 25 °C. After incubation, the OD600 values of the inoculated plates were measured in a plate reader (FLUOstar Omega reader, BMG LabTech) to evaluate fungal growth within the treatments.

B. velezensis UMAF6639 [2] = assay: Bacterial counts (CFU) of treated cultures; format: cell-based, Bacillus velezensis; conditions: analogue at its physiological concentration, sampled 14 h after treatment; compared with methanol control; Figure 7A
[3] = tested on: Fusarium oxysporum f. sp. radicis-lycopersici; conditions: antagonizing Fusarium oxysporum f. sp. radicis-lycopersici; cited from earlier work
Text: In another recent study, plipastatins, fengycin analogues produced by B. subtilis, were reported to interact with oil bodies (OBs) of the melon seed endosperm, accelerating lipid mobilization and resulting in plant growth promotion (PGP) and immunization.[12] […] Because fengycin B variants have the same fatty acid length, the amino acid at position 6 of the peptide moiety, which differs between fengycin A and B,[46] is important for t ...

[4] = tested on: Melon seeds (Rochet Panal - Fitó); assay: Promotion of radicle growth evaluation in melon seeds; format: in vivo; conditions: seeds bathed 1 h, 5 d at 25 °C in the dark; each analog at mixture concentration (7.35 µM); Figure 5A bottom
Procedure: Melon seeds (Rochet Panal - Fitó) were surface sterilized with 0.1% sodium hypochlorite and washed twice with distilled water. Seed treatment with the purified variants was performed by bathing the seeds for 1 h at room temperature. The analog concentrations were set to the physiological concentrations obtained from previous calibrations. In addition, a second concentration was assayed as if each analog was the only one produced to reach the same concentration as that of the mixture of each lipopeptide family (Table S3). Since each lipopeptide fraction was reconstituted in methanol, water-treated seeds with the highest concentration of methanol used for lipopeptide treatment were used as control. The methanol concentration ranged from 0.004 to 0.025% for iturins, 0.009 to 0.067% for fengycins and 0.018 to 0.050% for surfactins. The seeds were placed in Petri dishes with moist filter paper and maintained in growth chambers at 25 °C for 5 d under dark conditions. The radicle growth-promoting effects were analyzed on the basis of the radicle areas measured 5 days after seed treatment using Fiji software.[28]

Glu-Leu/Ile-Leu-Val-Asp-Leu-Leu/Ile (lariat or depsi) [C12-surfactin, surfactin analogue with C12 fatty acid, surfactin Fraction A]
toxicity to B. velezensis UMAF6639 (OD600 over 24 h), surfactin variants at the mixture concentration (B. velezensis UMAF6639 [1]): most toxic | antifungal activity (fungal growth, OD600), surfactins at physiological concentration (B. cinerea; B. cinerea, PDB, mix 65.83 µM, C12 3.67, C13 16.93, C14 20.49, C15 21.85, C16 4.11 µM (Table S3), Figure 4C left): no significant antifungal activity at physiological concentrations, except for the C12 analog

Glu-Leu/Ile-Leu-Val-Asp-Leu-Leu/Ile (lariat or depsi) [C13-surfactin, surfactin analogue with C13 fatty acid, surfactin Fraction B]
bacterial counts (CFU) of B. velezensis UMAF6639 cultures (B. velezensis UMAF6639 [2]): increased bacterial counts | effect on B. velezensis UMAF6639 growth (OD600 over 24 h), surfactins at physiological concentration (B. velezensis UMAF6639 [1]): considerable increase in the OD values

Glu-Leu/Ile-Leu-Val-Asp-Leu-Leu/Ile (lariat or depsi) [C15-surfactin, surfactin analogue with C15 fatty acid, surfactin Fractions E, F and G]
effect on B. velezensis UMAF6639 growth (OD600 over 24 h), surfactins at physiological concentration (B. velezensis UMAF6639 [1]): delayed bacterial growth

Glu-Leu/Ile-Leu-Val-Asp-Leu-Leu/Ile (lariat or depsi) [C16-surfactin, surfactin analogue with C16 fatty acid, surfactin Fraction H]
toxicity to B. velezensis UMAF6639 (OD600 over 24 h), surfactin variants at the mixture concentration (B. velezensis UMAF6639 [1]): most toxic | effect on B. velezensis UMAF6639 growth (OD600 over 24 h), surfactins at physiological concentration (B. velezensis UMAF6639 [1]): delayed bacterial growth | antifungal activity (fungal growth, OD600), surfactin variants at increased concentration (B. cinerea; each analog at mixture concentration (65.83 µM), B. cinerea, PDB, Figure 4C right): comparable to that of the positive control

Glu-Orn-Tyr-Thr-Glu-Ala/Val-Pro-Gln-Thr-Ile (lariat or depsi) [C14-fengycin B, fengycin B variant with C14 fatty acid, fengycin Fraction B]
effect on B. velezensis UMAF6639 growth (OD600 over 24 h), fengycin fractions at the highest (mixture) concentration (B. velezensis UMAF6639 [1]; each fraction at 25.60 µM, Figure 6F-J): more pronounced | effect on B. velezensis UMAF6639 growth (OD600 over 24 h), fengycins at physiological (lower) concentration (B. velezensis UMAF6639 [1]; mix 25.60 µM, fractions B 3.96, C 5.44, D 2.50, E 11.21, F 2.22 µM, Figure 6F-J): slightly delayed growth | antifungal activity (fungal growth, OD600), fengycin variants at the highest concentration tested (B. cinerea; each fraction at mixture concentration (25.60 µM), B. cinerea, PDB, Figure 4B right): weak antifungal activity

Glu-Orn-Tyr-Thr-Glu-Ala/Val-Pro-Gln-Thr-Ile (lariat or depsi) [fengycin A, fengycin variant with Ala at position 6; literature MIC comparison]
minimal inhibitory concentration [3]: notably greater than that of fengycin B

Ser-Asn-Pro-Gln-Asn-Tyr-Asn (head to tail) [C13-iturin A, iturin A analogue with C13 fatty acid chain, iturin Fraction A, purified from B. velezensis UMAF6639]
melon seed radicle growth promotion (radicle area), iturin variants at the same concentration [4]: compromised root development | effect on B. velezensis UMAF6639 growth (OD600 over 24 h), iturin variants at the higher (mixture) concentration (B. velezensis UMAF6639 [1]): harmless to Bacillus cells | effect on B. velezensis UMAF6639 growth (OD600 over 24 h), iturins at physiological concentration (B. velezensis UMAF6639 [1]): harmless to Bacillus cells

Ser-Asn-Pro-Gln-Asn-Tyr-Asn (head to tail) [C14-iturin A, iturin A analogue with C14 fatty acid chain, iturin Fraction B, purified from B. velezensis UMAF6639]
melon seed radicle growth promotion (radicle area), iturin variants at the same concentration [4]: compromised root development | effect on B. velezensis UMAF6639 growth (OD600 over 24 h), iturin variants at the higher (mixture) concentration (B. velezensis UMAF6639 [1]): bacterial growth was slightly delayed | effect on B. velezensis UMAF6639 growth (OD600 over 24 h), iturins at physiological concentration (B. velezensis UMAF6639 [1]): no difference from the control

Ser-Asn-Pro-Gln-Asn-Tyr-Asn (head to tail) [C15-iturin A, iturin A analogue with C15 fatty acid chain, iturin Fraction C, purified from B. velezensis UMAF6639]
melon seed radicle growth promotion (radicle area), iturin variants at the same concentration [4]: significantly promoted radicle growth | bacterial counts (CFU) of B. velezensis UMAF6639 cultures (B. velezensis UMAF6639 [2]): increased bacterial counts | effect on B. velezensis UMAF6639 growth (OD600 over 24 h), iturin variants at the higher (mixture) concentration (B. velezensis UMAF6639 [1]): decrease in the optical density, the values remained above those of the untreated control | effect on B. velezensis UMAF6639 growth (OD600 over 24 h), iturins at physiological concentration (B. velezensis UMAF6639 [1]): considerable increase in the OD600 value | antifungal activity (fungal growth, OD600), iturins at physiological concentration (B. cinerea; B. cinerea 100 spores/well in PDB, 150 rpm, mix 7.35 µM, C13 1.27, C14 2.39, C15 0.76, C16 1.96, C17 0.93 µM (Table S3), Figure 4A left): failed to exhibit antifungal activity | antifungal activity (fungal growth, OD600), iturin variants at the concentration of the entire mixture (B. cinerea; each variant at 7.35 μM, B. cinerea, PDB, Figure 4A right): sole active analog

Ser-Asn-Pro-Gln-Asn-Tyr-Asn (head to tail) [C16-iturin A, iturin A analogue with C16 fatty acid chain, iturin Fraction D, purified from B. velezensis UMAF6639]
melon seed radicle growth promotion (radicle area), iturin variants at the same concentration [4]: significantly promoted radicle growth | effect on B. velezensis UMAF6639 growth (OD600 over 24 h), iturin variants at the higher (mixture) concentration (B. velezensis UMAF6639 [1]): bacterial growth was slightly delayed | effect on B. velezensis UMAF6639 growth (OD600 over 24 h), iturins at physiological concentration (B. velezensis UMAF6639 [1]): no difference from the control

Ser-Asn-Pro-Gln-Asn-Tyr-Asn (head to tail) [C17-iturin A, iturin A analogue with C17 fatty acid chain, iturin Fraction E, purified from B. velezensis UMAF6639]
melon seed radicle growth promotion (radicle area), iturin variants at the same concentration [4]: slightly reduced the root area | effect on B. velezensis UMAF6639 growth (OD600 over 24 h), iturin variants at the higher (mixture) concentration (B. velezensis UMAF6639 [1]): completely arrested B. velezensis growth
